In one assay the test system is P388. Briefly: Cytotoxicity against mouse P388 cells. It is filed as functional. The settings on record: read-out: ED50 (the source's name).
The next assay relates to KB. As to the kind of experiment: Cytotoxicity against human KB cells. In kind it is functional. The settings on record: read-out: ED50 (the source's name).
The test system of a further assay is Cavia porcellus. As to the kind of experiment: Uteroevacuant activity in pregnant guinea pig at 20 mg/kg, ip administered on day 22 of gestation measured daily for 7 days. On the set-up: dose 20 mg/kg. In kind it is functional, organism-based.

In brackets after ≈: the same amount, converted by molar mass. Activity calls are given as the source filed them. No cut-off for these calls is given here.

For `C=C1C(=O)O[C@@H]2/C=C(\C)CC/C=C(\C)[C@@H](OC(=O)C(C)C)[C@H](O)[C@@]12O` [LEUCANTHANOLIDE], the EC50 with P388 worked out at 0.93 µg/mL (≈ 2.65 µM); in the assay on KB, 0.57 µg/mL (≈ 1.63 µM). Moreover, the outcome in the assay with Cavia porcellus was inactive.

The values are drawn from ChEMBL document CHEMBL1149005, “Studies on zoapatle, II. Leucanthanolide, a novel sesquiterpene lactone from Montanoa leucantha ssp. leucantha” (1986).
